Experimental findings from US8404640B2 (priority 2006, dated 2013) are described below.

In assay [1] the test system is CXCL12 protein expression. Put plainly: Immunofluorescence microscopy of CXCL12 protein in 5-aza-treated HCT116 cells. The assay is classed as cell-based, human. To be noted: 2.5 μM 5-aza, 3 days. The protocol:
Immunofluorescence microscopy. HCT116 epithelial cells were plated to glass chamber slides and grown for 3-days in untreated or 5-aza containing media. Cells were stained with mouse mAb specific for CXCL12 (clone #79018.111, R&D Systems) or a nonspecific mouse IgG control antibody (BD Pharmingen, San Jose, Calif.). CXCL12 protein and IgG background staining was visualized using Alexa Fluor 594 conjugated goat anti-mouse antibody (Molecular Probes, Eugene, Oreg.). Nuclei were visualized with a DAPI counterstain.

The test system of assay [2] is CXCL12 mRNA expression. Put plainly: RT-PCR analysis of CXCL12 and CXCR4 mRNA in 5-aza-treated colonic carcinoma cells. The assay is classed as cell-based, human. Conditions: for CXCL12 mRNA expression: indicated concentrations for five days. The source says: (§1) Human colorectal carcinoma cell lines. HT29 (HTB-38), HCT116 (CCL-247), Caco2 (HTB-37), T84 (CCL-248) colonic carcinoma cells were purchased from the American Type Culture Collection (ATCC, Rockville, Md.) and maintained as previously described (Smith, J. M., et al. (2005) Am. J. Physiol Gastrointest. Liver Physiol 288, 316-26; Dwinell, M. B., et al. (2001) Gastroenterology 120, 49-59). Dnmt1, Dnmt3b or Dnmt1/Dnmt3b double knockout HCT116 cells were the kind gift of Dr. Bert Vogelstein (John Hopkins University School of Medicine) and were maintained similarly to wild-type HCT116 cells. In some experiments, carcinoma cells were treated with 5-aza (EMD Biosciences, La Jolla, Calif.) every 24 hr for the indicated number of days.
RT-PCR analysis. Total RNA was isolated from cultured cells and colonic crypt epithelium using TRIzol reagent (Invitrogen, Carlsbad, Calif.), DNase treated (Ambion, Austin, Tex.) and 2 μg of total RNA was converted to cDNA via reverse transcription using random priming in a 40 μl volume. CXCL12, CXCR4, and β-actin mRNA transcripts were amplified using previously described PCR primers and conditions (Heidemann, J., et al. (2004) Am. J. Physiol Gastrointest. Liver Physiol 286, G1059-G1068; Smith, J. M., et al. (2005) Am. J. Physiol Gastrointest. Liver Physiol 288, 316-26). Other PCR analyses were conducted using listed primer pairs and conditions (Table S1). […] in cDNA synthesis reactions as a negative control.

In assay [3] the target is T1, Dnmt1 (Homo sapiens, UniProt P26358).
T1 construct: endogenous in cells; host or cells: HCT116 (ATCC CCL-247)
Put plainly: Immunoblot of extractable Dnmt1 in 5-aza-treated HCT116 cells. Type of assay: cell-based. To be noted: increasing concentrations of 5-aza.
Text: as §1
Immunoblot analysis. For the detection of Dnmt1, Dnmt3b and actin, whole cell lysates were prepared as previously described (Smith, J. M., Johanesen, P. A., Wendt, M. K., Binion, D. G., and Dwinell, M. B. (2005). CXCL12 activation of CXCR4 regulates mucosal host defense through stimulation of epithelial cell migration and promotion of intestinal barrier integrity. Am. J. Physiol Gastrointest. Liver Physiol 288, 316-26), and 10 or 25 μg of protein size separated using reducing SDS-PAGE. Equal protein loading was confirmed by Coomassie blue staining. […]
A general note: A western blot detects proteins with antibodies after separation by electrophoresis.

Assay [4] concerns CXCL12 promoter. Put plainly: Methylation-specific PCR of the CXCL12 promoter in 5-aza-treated cells. The assay is classed as cell-based, human.
Method: Methylation Specific PCR and Bisulphite Sequencing PCR. Genomic DNA from cell lines and colonic crypt preparations was isolated using the Genomic DNA wizard kit (Promega, Madison, Wis.) or TRIzol according to the manufacturer's instructions. […] DNA (2 μg) was denatured in 0.3M NaOH at 42° C. for 20 min in a 111 μl reaction volume. To this 1.2 ml of sodium bisulphite solution (4.5M NaHSO3, 0.02M hydroquinone, and pH 5.0) was added and incubated 16 hrs at 55° C. This reaction was desalted using DNA Purification Wizard (Promega) and the DNA was desulfonated in 0.3M NaOH at 37° C. for 20 min. The converted DNA was precipitated at −20° C., overnight in 75% ethanol containing 0.7M ammonium acetate and 0.05 mg/ml of glycogen, reconstituted in 50 μl of water, and 4.0 μl used in each 50 μl PCR reaction using 0.5 μM of specific MSP primers (Table S1).
The subject of assay [5] is CXCR4-expressing U937 monocytic cells. Put plainly: Leukocyte chemotaxis assay (Transwell, U937 monocytes over epithelial monolayers). The assay is classed as cell-based, human. The protocol:
Leukocyte chemotaxis assay. HT29 or HCT116 cells were plated and grown to confluence in 24-well dishes. Cells were then serum starved for 2 days. Calcein-AM (Molecular Probes) loaded U937 monocytes (5×10^5) were plated to the upper well of a Transwell chemotaxis chamber (5 μm pore size, Corning Costar, Corning, N.Y.), with the serum-starved epithelial monolayers in the bottom chamber. U937-epithelial co-cultures were supplemented with the CXCR4 receptor antagonist AMD3100 (5 μg/ml) or remain untreated as a control. U937 cells were incubated without epithelial cells or, as a separate control, epithelial cells alone, were used to establish constitutive chemotaxis or auto-fluorescence respectively. U937 cells were incubated with epithelial cells for 3 hr and the number of migrated calcein-loaded monocytes in the bottom chamber quantified by fluorescence spectroscopy (Victor Wallac, Perkin Elmer).

T1 sequence (P26358 whole entry): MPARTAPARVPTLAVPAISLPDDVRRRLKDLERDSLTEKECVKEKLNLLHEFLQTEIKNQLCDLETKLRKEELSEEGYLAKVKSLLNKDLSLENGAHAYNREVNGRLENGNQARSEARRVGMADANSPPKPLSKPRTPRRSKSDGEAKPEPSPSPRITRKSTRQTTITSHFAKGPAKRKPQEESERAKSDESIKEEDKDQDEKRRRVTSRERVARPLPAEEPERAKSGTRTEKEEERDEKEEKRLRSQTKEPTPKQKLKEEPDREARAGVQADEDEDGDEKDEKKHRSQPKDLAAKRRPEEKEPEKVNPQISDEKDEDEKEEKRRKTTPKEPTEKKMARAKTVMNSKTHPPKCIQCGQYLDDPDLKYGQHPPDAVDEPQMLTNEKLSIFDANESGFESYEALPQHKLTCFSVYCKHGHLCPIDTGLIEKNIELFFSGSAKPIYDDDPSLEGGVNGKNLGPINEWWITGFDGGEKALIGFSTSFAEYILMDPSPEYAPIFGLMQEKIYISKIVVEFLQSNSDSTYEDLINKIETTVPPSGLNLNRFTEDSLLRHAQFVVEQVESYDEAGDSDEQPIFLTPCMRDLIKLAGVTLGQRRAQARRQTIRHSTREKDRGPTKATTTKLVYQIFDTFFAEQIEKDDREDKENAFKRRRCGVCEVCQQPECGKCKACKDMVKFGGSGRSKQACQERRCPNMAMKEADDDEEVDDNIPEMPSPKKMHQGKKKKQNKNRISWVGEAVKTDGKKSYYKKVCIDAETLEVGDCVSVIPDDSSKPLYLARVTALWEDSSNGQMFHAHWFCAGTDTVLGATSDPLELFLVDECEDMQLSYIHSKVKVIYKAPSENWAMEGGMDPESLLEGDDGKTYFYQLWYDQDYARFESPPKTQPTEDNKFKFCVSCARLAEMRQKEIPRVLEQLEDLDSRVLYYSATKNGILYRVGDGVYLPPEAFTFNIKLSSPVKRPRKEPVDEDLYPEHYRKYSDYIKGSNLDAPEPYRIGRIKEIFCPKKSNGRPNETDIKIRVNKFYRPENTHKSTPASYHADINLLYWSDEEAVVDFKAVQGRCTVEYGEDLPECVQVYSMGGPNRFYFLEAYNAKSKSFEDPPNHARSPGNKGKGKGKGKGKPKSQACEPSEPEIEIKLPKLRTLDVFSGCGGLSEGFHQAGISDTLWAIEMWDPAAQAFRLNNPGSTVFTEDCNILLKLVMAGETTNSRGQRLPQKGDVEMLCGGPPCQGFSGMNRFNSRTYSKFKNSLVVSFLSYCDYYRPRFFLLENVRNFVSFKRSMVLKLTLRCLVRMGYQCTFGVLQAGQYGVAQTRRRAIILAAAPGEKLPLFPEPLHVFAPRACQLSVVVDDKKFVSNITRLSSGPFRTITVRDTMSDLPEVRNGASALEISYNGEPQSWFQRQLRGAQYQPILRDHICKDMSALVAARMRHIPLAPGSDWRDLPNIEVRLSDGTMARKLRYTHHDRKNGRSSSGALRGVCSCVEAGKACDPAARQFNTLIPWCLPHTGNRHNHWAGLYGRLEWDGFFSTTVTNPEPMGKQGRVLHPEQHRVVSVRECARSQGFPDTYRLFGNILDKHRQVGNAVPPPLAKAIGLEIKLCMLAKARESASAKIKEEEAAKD

Regarding `Nc1ncn([C@H]2C[C@H](O)[C@@H](CO)O2)c(=O)n1` [5-aza, 5-aza-2′-deoxycytidine], the “CXCL12 protein expression by immunofluorescence” value in assay [1] was “detected”. The CXCL12 gene re-expression entry in assay [2] (Caco2 cells (data not shown)) and in assay [2] (T84 cells (data not shown)) was “similarly fostered gene re-expression” each time. Further, the “CXCL12 mRNA expression” value in assay [2] (HCT116 cells) and in assay [2] (HT29 cells) was “dose-dependently restored” each time. Moreover, the “CXCR4 mRNA levels” value in assay [2] (HT29 and HCT116 cells with 5-aza treatment) is on record as “remained unchanged”. Further, the “time of maximal CXCL12 re-expression” value in assay [2] (HT29 or HCT116 cells, 2.5 μM 5-aza for 3-6 days) is on record as 5 days. Moreover, in assay [3], the “extractable levels of Dnmt1” value is on record as “ablated”. Moreover, the “methylation of the CXCL12 promoter” value in assay [4] (HCT116 cells, 2.5 μM 5-aza, 3 days) was “inhibited”; in assay [4] (HT29 cells (data not shown)), “inhibited”.

Regarding `c1cc(CN2CCCNCCNCCCNCC2)ccc1CN1CCCNCCNCCCNCC1` [AMD3100], the “chemotaxis of U937 cells toward CXCL12-expressing HT29 and HCT116 cells” value in assay [5] (AMD3100 5 μg/ml, 3 hr) is reported as “potently blocked migration”.

Consider “CXCL12: alpha type 7.8 kDa CXC chemokine, here secreted by stably transfected HT29 and HCT116 cells”, for which, in assay [5] (CXCL12 secreted from HT29 and HCT116 stable transfectants), the “ability to stimulate chemotaxis of U937 cells” value is recorded as “functional”.
